Data taken from patent US20200345725A1, “Methods and Compositions for Treating Cancer” (Omeros Corporation, priority 2019, published 2020).
Where “and” joins values, the source holds several entries; their conditions need not be identical. Equal values may be shown once. Marks after values point to notes of the source that are not given here.

Key:
Assay type in all cases: cell-based
CHRM1 = experiment: CRA against CHRM1
Text: (§1) The inventors used a CRA similar to that described in U.S. Pat. No. 7,309,576 and O'Dowd et al., J. Biomol. Screen. 12:175-85, 2007 to identify compounds that are capable of interacting with GPR174 using a library of approximately 370,000 chemical entities. Briefly described, the CRA assay described in U.S. Pat. No. 7,309,576 involves artificially inserting a NLS into the dopamine D1 receptor (DRD1), which allows the receptor to traffic from the cell membrane to the cell interior, and that the binding of antagonists to the receptor retained the receptor at the cell surface, while removal of the ligand allowed the receptor to continue to internalize from the cell surface. Both antagonists and agonists that selectively bound the receptor retained the receptor on the plasma membrane. GPR174 constructs were generated for use in a CRA-based compound screening assay. From this screen, the inventors initially identified compounds of formula I-VI, as described herein and included in Table 1.
The inventors also sought to validate that the compounds identified using the CRA are modulatory compounds. To this end, the above-described CRA was used to screen a library for compounds that interact with three control non-orphan receptors, and the results of this screen were compared to the results of screening the same library for compound that were identified using a Fluorometric Imaging Plate Reader (FLIPR) assay, a conventional technique commonly used to identify compounds interacting with non-orphan GPCRs signaling through Ca^++. Three non-orphan GPCRs—Muscarinic acetylcholine receptor M1 (CHRM1), Adrenergic receptor alpha 1a (ADRA1a), and Neuropeptide S receptor (NPSR)—were screened against a 10,000-compound GPCR-focused library. Thirty interacting compound “hits” were identified using the CRA, and eighty-one hits were identified using the FLIPR for the CHRM1 receptor; 9 CRA hits and 29 FLIPR hits for the NPS receptor were identified; and 110 CRA hits and 110 FLIPR hits for ADRA1a.
In addition, the CRA can also provide the relative potencies of compounds against the target receptor.

GPR174 [1] = target: T1, GPR174 (Homo sapiens, UniProt Q9BXC1); experiment: CRE-Luc reporter Gs signaling assay with GPR174; design: host or cells: HEK293 or CHO cell lines (ATCC); conditions: for Gs pathway in the presence of GPR174 (CRE-Luc reporter): increasing concentrations of compound; for Fold decrease in Gs signaling activity / EC50 / Human GPR174 CRE Activity: nature of the compound (IA, antagonist, NM): pCRE-Luc reporter; for EC50: multiple values = separate experiments
Target sequence in this assay (Q9BXC1 whole entry): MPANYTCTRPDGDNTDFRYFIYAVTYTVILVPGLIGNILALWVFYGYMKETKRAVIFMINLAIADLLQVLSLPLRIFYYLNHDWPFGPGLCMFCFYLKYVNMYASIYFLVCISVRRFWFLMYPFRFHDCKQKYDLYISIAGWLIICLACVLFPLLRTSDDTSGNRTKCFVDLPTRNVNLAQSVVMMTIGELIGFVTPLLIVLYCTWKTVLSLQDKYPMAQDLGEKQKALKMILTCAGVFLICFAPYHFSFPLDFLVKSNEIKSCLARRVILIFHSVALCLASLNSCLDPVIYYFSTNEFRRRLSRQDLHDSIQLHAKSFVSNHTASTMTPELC

ADBR2 = target: T2, ADBR2 (Homo sapiens, UniProt P07550); experiment: CRE-Luc reporter assay with control receptor ADBR2
T2 construct: host or cells: HEK293 or CHO cell lines (ATCC)
Procedure: The DNA/lipofectamine 2000 mix (3000 μL) was incubated at room temperature for 30 minutes and then added into a 10 cm culture dish (Corning, NY) containing 70-90% confluent cultured cells, (HEK293 or CHO cell lines (ATCC, VA)), in 15 mL of media. […] The cells were further incubated at 37° C. for various times. The media were removed and the cells lysed.
Compounds were tested in the reporter system with increasing concentrations of GPR174-interacting compounds.
The DNA/lipofectamine 2000 mix (3000 μL) was incubated at room temperature for 30 minutes and then added into a 10 cm culture dish (Corning, NY) containing 70-90% confluent cultured cells, typically HEK293 or CHO cell lines (ATCC, VA), in 15 mL of media. […] Media (26 mL) were added to the detached cells and 120 μL of transfected cells were transferred to each well on a 96-well plate. Increasing concentration of each compound in DMSO (1.2 μl) was added to the cells after plating into the 96-well plate. The cells were further incubated at 37° C. for various times. The media were removed, and the cells lysed.
ADBR2 is a GPCR, like GPR174, that activates the Gs signaling pathway.

GPR174 [2] = target: T1, GPR174; experiment: Cellular redistribution assay (CRA) for GPR174; conditions: for EC50: multiple values = separate experiments
Text: One method for identifying compounds capable of modulating a receptor is using a cellular redistribution assay (“CRA”). Exemplary CRA methods are found in U.S. Pat. No. 7,309,576 issued to O'Dowd et al. and in O'Dowd et al., J. Biomol. Screen. 12:175-85,2007. […] Incorporation of the NLS alters the cellular localization of the GPCR, such that the majority of the NLS-modified receptor is present in the cell interior. An NLS-modified GPCR, when interacting with a functionally active compound, is mostly localized on the cell surface. Thus, it becomes possible to identify receptor modulators without knowledge of the endogenous ligand or a surrogate ligand.
The inventors have identified a number of compounds that inhibit GPR174 using a CRA assay similar to that described in U.S. Pat. No. 7,309,576 and in O'Dowd et al., J. Biomol. Screen. 12:175-85, 2007. These compounds are described in detail below.
as §1
Target sequence in this assay (Q9BXC1 1-292 limits assumed): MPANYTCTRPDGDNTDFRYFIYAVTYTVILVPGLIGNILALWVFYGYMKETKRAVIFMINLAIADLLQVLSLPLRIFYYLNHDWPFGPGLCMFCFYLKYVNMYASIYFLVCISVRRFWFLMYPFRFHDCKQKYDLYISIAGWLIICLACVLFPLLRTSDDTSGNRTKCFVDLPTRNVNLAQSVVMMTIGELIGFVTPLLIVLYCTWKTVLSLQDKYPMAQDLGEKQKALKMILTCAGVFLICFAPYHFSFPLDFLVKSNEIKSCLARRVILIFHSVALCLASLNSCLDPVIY

human PBMCs = experiment: Th1 cytokines in supernatants of stimulated human PBMC, GPR174 inhibitor with adenosine pathway inhibitors (Examples 15, 18-22); conditions: donor 7; for synergy with ZM on GM-CSF (greater than the sum of the increases with each inhibitor alone) / synergy with ZM on IFN-γ (greater than the sum of the increases with each inhibitor alone) / synergy with ZM on IL-2 (greater than the sum of the increases with each inhibitor alone) / synergy with ZM on TNF (greater than the sum of the increases with each inhibitor alone): high and low concentrations, ZM 0.1 μM
Procedure: Human PBMCs, obtained from a human volunteer donor, were dispensed at density of 1×10^6 cells/well in a 96-well flat-bottom plate and were stimulated in triplicate with 1 μg/mL anti-CD3 antibody (UCHT1) and 0.1 μg/mL anti-CD28 antibody (CD28.2) in the presence of:
Supernatants from these cells were collected at 24 hours post-stimulation and the levels of IFN-γ were determined by ELISA assay. Statistical analysis was carried out using one-way ANOVA with Tukey's post-hoc multiple comparison's correction.
Human PBMCs, obtained from a human volunteer donor (donor 1), were dispensed in X-vivo15 media (Lonza) supplemented with Glutamax, penicillin and streptomycin, at density of 1×10^6 cells/well in a 96-well flat-bottom plate and were stimulated with 1 μg/mL anti-CD3 antibody (UCHT1) and 0.1 μg/mL anti-CD28 antibody (CD28.2) in the presence of:
Supernatants from these cells were collected at 24 hours post-stimulation and the levels of IFN-γ, IL-2 and TNF were determined by ELISA assays.
Human PBMCs, obtained from two individual human volunteer donors (donor 2 and donor 3), were dispensed at density of 1×10^6 cells/well in a 96-well flat-bottom plate and were stimulated with 1 μg/mL anti-CD3 antibody (UCHT1) and 0.1 μg/mL anti-CD28 antibody (CD28.2) in the presence of:
Human PBMCs, obtained from twelve individual human volunteer donors were dispensed at density of 1×10^6 cells/well in a 96-well flat-bottom plate and were stimulated in triplicate with 1 μg/mL anti-CD3 antibody (UCHT1) and 0.1 μg/mL anti-CD28 antibody (CD28.2) in the presence of:
A total of 44 experiments using PBMC from 12 healthy donors were tested (9 donors for GM-CSF), with each donor tested in 1 to 8 separate experiments, depending on the donor (1 to 4 experiments each for GM-CSF). […] Cytokines were detected in supernatants with the Legendplex (Biolegend) or the MSB (MesoScale) platforms. […] One-way ANOVA with Tukey's post-hoc multiple comparisons correction was performed to identify significant differences (FC, mean fold change; ****, p<0.0001, ***, p<0.001; **, p<0.01; *, p<0.05, ns, not significant).
Human PBMC (1×10^6 cells/well in a 96-well flat-bottom plate) obtained from donor 3 and donor 6 were stimulated with 1 μg/mL anti-CD3 antibody (UCHT1) and 0.1 μg/mL anti-CD28 antibody (CD28.2) in the presence of:
Supernatants from these cells were collected at 24 hours post-stimulation and the levels of IFN-γ, IL-2, and TNF were determined with the MSD platform (MesoScale Discovery).
Human PBMC (1×10^6 cells/well in a 96-well flat-bottom plate) obtained from donor 7 were stimulated with 1 μg/mL […] (UCHT1) and 0.1 μg/mL anti-CD28 antibody (CD28.2) in the presence of:
Supernatants from these cells were collected at 24 hours post-stimulation and the levels of IFN-γ, IL-2, TNF and GM-CSF were determined with the MSD platform (MesoScale Discovery).
Supernatants from these cells were collected at 24 hours post-stimulation and the levels of IFN-γ, IL-2 and TNF were determined with the MSD platform (MesoScale Discovery).

[3] = no ZM, 0.3 μM (compound 20: 3 μM)
[4] = no ZM, 1 μM (compound 20: 10 μM)
[5] = with ZM-241385 0.1 μM, 0.3 μM (compound 20: 3 μM)
[6] = with ZM-241385 0.1 μM, 1 μM (compound 20: 10 μM), label ZM = ZM alone

T2 sequence (P07550 whole entry): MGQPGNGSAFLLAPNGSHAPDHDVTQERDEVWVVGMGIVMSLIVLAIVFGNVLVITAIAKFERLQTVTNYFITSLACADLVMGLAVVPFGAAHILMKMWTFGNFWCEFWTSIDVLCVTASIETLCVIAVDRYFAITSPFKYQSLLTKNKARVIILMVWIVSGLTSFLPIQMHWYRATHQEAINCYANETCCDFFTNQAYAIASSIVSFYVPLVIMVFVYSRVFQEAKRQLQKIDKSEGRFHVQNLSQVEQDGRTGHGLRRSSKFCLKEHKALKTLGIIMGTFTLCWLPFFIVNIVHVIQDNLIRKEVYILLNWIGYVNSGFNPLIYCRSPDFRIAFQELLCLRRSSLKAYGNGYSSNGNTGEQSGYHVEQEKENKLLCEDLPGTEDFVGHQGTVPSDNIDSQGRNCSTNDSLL

Structure (SMILES)	activity against CHRM1 in the CRA (FIG. 5B) (CHRM1)	Gs pathway in the presence of GPR174 (CRE-Luc reporter) (GPR174 [1])	Fold decrease in Gs signaling activity (GPR174 [1]) [fold]	EC50 (GPR174 [1])	Gs pathway in the presence of ADBR2 (CRE-Luc reporter) (ADBR2)	dose-response curve against GPR174 in the CRA (FIG. 5A) (GPR174 [2])	EC50 (GPR174 [2]) [nM]	Human GPR174 CRE Activity: nature of the compound (IA, antagonist, NM) (GPR174 [1])	synergy with ZM on GM-CSF (greater than the sum of the increases with each inhibitor alone) (human PBMCs)	synergy with ZM on IFN-γ (greater than the sum of the increases with each inhibitor alone) (human PBMCs)	synergy with ZM on IL-2 (greater than the sum of the increases with each inhibitor alone) (human PBMCs)	synergy with ZM on TNF (greater than the sum of the increases with each inhibitor alone) (human PBMCs)	GM-CSF, ratio relative to vehicle control (human PBMCs; [3])	IFN-γ, ratio relative to vehicle control (human PBMCs; [3])	IL-2, ratio relative to vehicle control (human PBMCs; [3])	TNF, ratio relative to vehicle control (human PBMCs; [3])	GM-CSF, ratio relative to vehicle control (human PBMCs; [4])	IFN-γ, ratio relative to vehicle control (human PBMCs; [4])	IL-2, ratio relative to vehicle control (human PBMCs; [4])	TNF, ratio relative to vehicle control (human PBMCs; [4])	also measured
CCOC(=O)N1CCN(c2cc(N3CCC(C)CC3)c(F)cc2[N+](=O)[O-])CC1 [compound 1]	do not show any activity	inhibited	2.9	400 nM and 800 nM	did not inhibit	show a dose-response curve	2100														
CC(=O)N1CCN(c2cc(N3CCCCC3)c(F)cc2[N+](=O)[O-])CC1 [compound 2]	do not show any activity	inhibited	1.7	400 nM and 300 nM	did not inhibit	show a dose-response curve															
CC(=O)c1ccc(N2CCN(C(=O)c3ccc(F)cc3)CC2)c(F)c1 [compound 3]	do not show any activity					show a dose-response curve		Antagonist or allostetic modulator													
O=[N+]([O-])c1cc(F)c(N2CCCCC2)cc1N1CCN(S(=O)(=O)c2ccccc2)CC1 [compound 11]		inhibited	3.1	500 nM and 1300 nM and 600 nM	did not inhibit		> 1100		synergized with ZM	synergized with ZM	synergized with ZM	synergized with ZM	2.9*	1.9*	1.4*	1.7*	2.4*	1.8*	1.3	1.7*	GM-CSF, ratio relative to vehicle control (human PBMCs; [5]): 4.4*; IFN-γ, ratio relative to vehicle control (human PBMCs; [5]): 2.9*; IL-2, ratio relative to vehicle control (human PBMCs; [5]): 1.8*; TNF, ratio relative to vehicle control (human PBMCs; [5]): 2.6*; GM-CSF, ratio relative to vehicle control (human PBMCs; [6]): 4.9*; IFN-γ, ratio relative to vehicle control (human PBMCs; [6]): 3.4*; IL-2, ratio relative to vehicle control (human PBMCs; [6]): 1.9*; TNF, ratio relative to vehicle control (human PBMCs; [6]): 3.0*
Cc1ccccc1Nc1nnc(-c2ccc(C)c(S(N)(=O)=O)c2)c2ccccc12 [compound 20]	do not show any activity					show a dose-response curve		Antagonist or allosteric modulator	synergized with ZM	synergized with ZM	synergized with ZM	synergized with ZM	2.7*	1.2	1.3	1.4*	2.3*	1.5*	1.4*	1.5*	GM-CSF, ratio relative to vehicle control (human PBMCs; [5]): 4.6*; IFN-γ, ratio relative to vehicle control (human PBMCs; [5]): 1.8*; IL-2, ratio relative to vehicle control (human PBMCs; [5]): 1.6*; TNF, ratio relative to vehicle control (human PBMCs; [5]): 1.9*; GM-CSF, ratio relative to vehicle control (human PBMCs; [6]): 4.4*; IFN-γ, ratio relative to vehicle control (human PBMCs; [6]): 2.1*; IL-2, ratio relative to vehicle control (human PBMCs; [6]): 2.1*; TNF, ratio relative to vehicle control (human PBMCs; [6]): 2.4*
